# Source: patent publication US10227331B2 (priority 2015, dated 2019)
# Assays:
# [1] = tested on: P. aeruginosa expressing IMP-1, efflux− (MB9799); experiment: Efflux: concentration of MBL inhibitor which restores susceptibility to imipenem; type: cell-based, Pseudomonas aeruginosa; conditions: imipenem at 2 μg/mL, in the presence of a class A, C, D serine β-lactamase inhibitor closely related to relebactam
# Text: (§1) The strain background is Pseudomonas aeruginosa PAO1.
# [2] = molecular target: VIM-1 (Pseudomonas aeruginosa (strain ATCC 15692 / DSM 22644 / CIP 104116 / JCM 14847 / LMG 12228 / 1C / PRS 101 / PAO1), UniProt A0A0F7KYQ8); experiment: biochemical; conditions: CCF2-FA substrate, 2 hours at 25° C
# How it was run: (§2)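 IC50 values derive from 4-parameter fits of percent inhibition against inhibitor concentration on semi-log axes. Activity was monitored by fluorescence with the CCF2-FA substrate after a 2-hour, 25° C incubation of compound, enzyme and substrate.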
# [3] = tested on: Klebsiella pneumoniae expressing VIM-1 (IHMA599644); type: cell-based; conditions: with imipenem 1 μg/ml, 95% inhibition of bacterial growth; for Klebsiella pneumoniae MITC95: VIM-1 (IHMA599644)
# How it was run: (§3)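 Restoration of imipenem susceptibility (1 μg/ml imipenem) was judged by absorbance after 22–24 h at 35° C. Test compound was added to bacteria suspended 1:100 in 1.1× CAMHB from overnight blood-agar cultures.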
# [4] = tested on: Serratia marcescens expressing IMP-1 (CL5741); type: cell-based; conditions: with imipenem 1 μg/ml, 95% inhibition of bacterial growth; for Serratia marcescens MITC95: IMP-1 (CL5741)
# How it was run: as §3
# [5] = tested on: Escherichia coli expressing NDM-1 (CLB30005, CLB30016); type: cell-based; conditions: with imipenem 1 μg/ml, 95% inhibition of bacterial growth; for Escherichia coli MITC95: NDM-1 (CLB30016)
# How it was run: as §3
# [6] = molecular target: IMP-1 (Serratia marcescens, UniProt P52699); experiment: biochemical; type: biochemical; conditions: CCF2-FA substrate, 2 hours at 25° C; read-out: IMP-1 IC50
# How it was run: as §2
# [7] = molecular target: NDM-1 (Klebsiella pneumoniae, UniProt C7C422); experiment: biochemical; type: biochemical; conditions: CCF2-FA substrate, 2 hours at 25° C; read-out: NDM-1 IC50
# How it was run: as §2
# [8] = tested on: P. aeruginosa expressing IMP-1, efflux+ (MB9798); type: cell-based, Pseudomonas aeruginosa; conditions: for P. aeruginosa expressing IMP-1, efflux+ (MB9798) MITC95: imipenem at 2 μg/mL, in the presence of a class A, C, D serine β-lactamase inhibitor closely related to relebactam; for Efflux ratio: ratio MITC95 PA_9798/MITC95 PA_9799
# Text: as §1
# Sequence of NDM-1 (C7C422 whole entry, looked up, species assumed): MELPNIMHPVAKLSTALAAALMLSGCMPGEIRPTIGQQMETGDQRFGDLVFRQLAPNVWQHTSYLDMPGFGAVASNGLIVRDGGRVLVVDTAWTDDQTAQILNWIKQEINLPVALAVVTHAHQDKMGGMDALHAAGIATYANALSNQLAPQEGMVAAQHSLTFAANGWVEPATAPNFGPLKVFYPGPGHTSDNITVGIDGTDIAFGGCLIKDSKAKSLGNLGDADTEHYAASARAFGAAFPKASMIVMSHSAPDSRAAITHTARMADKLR
# Sequence of IMP-1 (P52699 whole entry, looked up, species assumed): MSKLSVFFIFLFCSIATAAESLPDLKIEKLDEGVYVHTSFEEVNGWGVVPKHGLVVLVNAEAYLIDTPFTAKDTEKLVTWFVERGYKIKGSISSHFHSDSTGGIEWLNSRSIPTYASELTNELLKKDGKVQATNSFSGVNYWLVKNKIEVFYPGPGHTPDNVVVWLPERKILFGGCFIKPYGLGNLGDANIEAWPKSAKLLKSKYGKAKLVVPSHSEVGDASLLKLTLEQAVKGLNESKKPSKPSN
structure (smiles),measurement,setting,value
"COC(=O)CNC(=O)c1nc2c(-c3ccc(S(=O)(=O)C4CNC4)c(S(N)(=O)=O)c3-c3nn[nH]n3)cccc2[nH]1 [Example 256, Methyl (4-(4-(azetidin-3-ylsulfonyl)-3-sulfamoyl-2-(2H-tetrazol-5-yl)phenyl)-1H-benzo[d]imidazole-2-carbonyl)glycinate]","P. aeruginosa expressing IMP-1, efflux− (MB9799) MITC95",[1],6.25 µM
same,IC50,[2],0.35 nM
same,Klebsiella pneumoniae MITC95,[3],12.5 µM
same,Serratia marcescens MITC95,[4],6.25 µM
same,Escherichia coli MITC95,[5],6.25 µM
same,IC50,[6],0.999 nM
same,IC50,[7],0.108 nM
same,"P. aeruginosa expressing IMP-1, efflux+ (MB9798) MITC95",[8],6.25 µM
same,Efflux ratio,[8],1.00
"NCCS(=O)(=O)c1ccc(-c2cccc3c2NC(=O)C3O)c(-c2nnn[nH]2)c1S(N)(=O)=O (stereo not drawn) [Example 347, 6-((2-Aminoethyl)sulfonyl)-3-(3-hydroxy-2-oxoindolin-7-yl)-2-(1H-tetrazol-5-yl)benzenesulfonamide]","P. aeruginosa expressing IMP-1, efflux− (MB9799) MITC95",[1],3.125 µM
same,IC50,[2],0.933 nM
same,Klebsiella pneumoniae MITC95,[3],6.25 µM
same,Serratia marcescens MITC95,[4],1.563 µM
same,Escherichia coli MITC95,[5],3.125 µM
same,IC50,[6],1.34 nM
same,IC50,[7],1.73 nM
same,"P. aeruginosa expressing IMP-1, efflux+ (MB9798) MITC95",[8],12.5 µM
same,Efflux ratio,[8],4.00
"NS(=O)(=O)c1c(S(=O)(=O)C2CNC2)ccc(-c2cccc3cn[nH]c23)c1-c1nnn[nH]1 [Example 297, 6-(azetidin-3-ylsulfonyl)-3-(1H-indazol-7-yl)-2-(1H-tetrazol-5-yl)benzenesulfonamide]","P. aeruginosa expressing IMP-1, efflux− (MB9799) MITC95",[1],0.7813 µM
same,IC50,[2],0.282 nM
same,Klebsiella pneumoniae MITC95,[3],3.125 µM
same,Serratia marcescens MITC95,[4],1.563 µM
same,Escherichia coli MITC95,[5],1.563 µM
same,IC50,[6],0.596 nM
same,IC50,[7],0.217 nM
same,"P. aeruginosa expressing IMP-1, efflux+ (MB9798) MITC95",[8],1.563 µM
same,Efflux ratio,[8],2.00
"Nc1nc2c(-c3ccc(S(=O)(=O)c4cccc(C(F)(F)F)c4)c(S(N)(=O)=O)c3-c3nn[nH]n3)cccc2s1 [Example 250, 3-(2-Aminobenzo[d]thiazol-4-yl)-2-(2H-tetrazol-5-yl)-6-((3-(trifluoromethyl)phenyl)sulfonyl)benzenesulfonamide]","P. aeruginosa expressing IMP-1, efflux− (MB9799) MITC95",[1],3.125 µM
same,IC50,[2],0.681 nM
same,Klebsiella pneumoniae MITC95,[3],100 µM
same,Serratia marcescens MITC95,[4],6.25 µM
same,Escherichia coli MITC95,[5],6.25 µM
same,IC50,[6],0.82 nM
same,IC50,[7],0.245 nM
same,"P. aeruginosa expressing IMP-1, efflux+ (MB9798) MITC95",[8],200 µM
same,Efflux ratio,[8],64.00
"NCCS(=O)(=O)c1ccc(-c2cccc3ccc(N)nc23)c(-c2nn[nH]n2)c1S(N)(=O)=O [Example 71, 6-(2-aminoethylsulfonyl)-3-(2-aminoquinolin-8-yl)-2-(2H-tetrazol-5-yl)benzenesulfonamide]","P. aeruginosa expressing IMP-1, efflux− (MB9799) MITC95",[1],0.7813 µM
same,IC50,[2],0.315 nM
same,Klebsiella pneumoniae expressing VIM-1 (IHMA599644) MITC95,[3],1.563 µM
same,Serratia marcescens expressing IMP-1 (CL5741) MITC95,[4],0.7813 µM
same,Escherichia coli expressing NDM-1 (CLB30016) MITC95,[5],0.3906 µM
same,IC50,[6],0.129 nM
same,IC50,[7],0.115 nM
same,"P. aeruginosa expressing IMP-1, efflux+ (MB9798) MITC95",[8],0.7813 µM
same,Efflux ratio,[8],1.00
